Data published in patent US9365576B2, “Pyrrolopyrrolidinone compounds” (Novartis AG, priority 2012, dated 2016).

Each molecule was assayed against human MDM2 protein (amino acids 2-188) (Homo sapiens (Human), UniProt Q00987) (assay: TR-FRET assay, p53-MDM2 Assay 2 (modified)). Settings: TR-FRET; 0.1 nM MDM2, 0.1 nM Europium labeled streptavidin, Tecan genios Pro reader; read-out: IC50 p53-MDM2 Assay 2.
Format: binding
Outline: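 IC50 values were curve-fitted from the time-resolved 665/620 nm emission ratio after 340 nm excitation. The assay combined 0.625 nM europium-streptavidin donor with 1.25 nM C-terminally biotinylated MDM2 2–188 (15 min, RT), followed by 15 min with 10 nM Cy5-labeled p53 18–26 acceptor peptide.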

Sequence of human MDM2 protein (amino acids 2-188) (Q00987 2-188): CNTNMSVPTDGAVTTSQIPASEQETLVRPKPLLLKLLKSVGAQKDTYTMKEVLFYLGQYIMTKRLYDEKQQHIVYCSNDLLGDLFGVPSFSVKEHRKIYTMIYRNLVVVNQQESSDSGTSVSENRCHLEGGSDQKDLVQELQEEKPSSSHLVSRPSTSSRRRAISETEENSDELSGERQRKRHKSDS

IC50 [nM]	Compound
0.224	COc1nc(N(C)C)ncc1-c1cc2c(n1C(C)C)C(c1ccc(C#N)cc1)N(c1c(F)c(C)nn1C)C2=O (stereo not shown) [Example 231, 4-(2-(2-(Dimethylamino)-4-methoxypyrimidin-5-yl)-5-(4-fluoro-1,3-dimethyl-1H-pyrazol-5-yl)-1-isopropyl-4-oxo-1,4,5,6-tetrahydropyrrolo[3,4-b]ppyrrol-6-yl)benzonitrile]
0.527	COc1ncc(-c2cc3c(n2C(C)C)[C@H](c2ccc(C#N)cc2)N(c2cc(Cl)cn(C)c2=O)C3=O)c(OC)n1 [Example 215, 4-[(S)-5-(5-Chloro-1-methyl-2-oxo-1,2-dihydro-pyridin-3-yl)-2-(2,4-dimethoxy-Pyrimidin-5-yl)-1-isopropyl-4-oxo-1,4,5,6-tetrahydro-pyrrolo[3,4-b]pyrrol-6-yl]-benzonitrile]
0.303	COC[C@@H](C)n1c(-c2cnc(OC)nc2OC)cc2c1C(c1ccc(C#N)cc1)N(c1ccc(F)c(Cl)c1)C2=O (stereo partly drawn) [Example 222, 4-[(R,S)-5-(3-Chloro-4-fluoro-phenyl)-2-(2,4-dimethoxy-pyrimidin-5-yl)-1-((R)-2-methoxy-1-methyl-ethyl)-4-oxo-1,4,5,6-tetrahydro-pyrrolo[3,4-b]pyrrol-6-yl]-benzonitrile]
0.87	COc1ncc(-c2cc3c(n2C(C)C)C(c2ccc(Cl)cc2)N(c2cc(C)nn2C)C3=O)c(OC)n1 (stereo not shown) [Example 176, 6-(4-Chloro-phenyl)-2-(2,4-dimethoxy-pyrimidin-5-yl)-5-(2,5-dimethyl-2H-pyrazol-3-yl)-1-isopropyl-5,6-dihydro-1H-pyrrolo[3,4-b]pyrrol-4-one]
2.57	COc1ccc(S(C)(=O)=O)cc1-c1cc2c(n1C(C)C)C(c1ccc(Cl)cc1)N(c1cn(C)nc1C)C2=O (stereo not shown) [Example 183, 6-(4-Chloro-phenyl)-5-(1,3-dimethyl-1H-pyrazol-4-yl)-1-isopropyl-2-(5-methanesulfonyl-2-methoxy-phenyl)-5,6-dihydro-1H-pyrrolo[3,4-b]pyrrol-4-one]
3.72	COc1nc(N)ncc1-c1cc2c(n1C(C)C)C(c1ccc(Cl)cc1)N(c1cc(C)nn1C)C2=O (stereo not shown) [Example 175, 2-(2-Amino-4-methoxy-pyrimidin-5-yl)-6-(4-chloro-phenyl)-5-(2,5-dimethyl-2H-pyrazol-3-yl)-1-isopropyl-5,6-dihydro-1H-pyrrolo[3,4-b]pyrrol-4-one]
1.68	COc1ncc(-c2cc3c(n2C(C)C)C(c2ccc(C#N)cc2)N(c2c(F)c(C)nn2C)C3=O)c(OC)n1 (stereo not shown) [Example 211, 4-[2-(2,4-Dimethoxy-pyrimidin-5-yl)-5-(4-fluoro-2,5-dimethyl-2H-pyrazol-3-yl)-1-isopropyl-4-oxo-1,4,5,6-tetrahydro-pyrrolo[3,4-b]pyrrol-6-yl]-benzonitrile]
0.362	COC[C@@H](C)n1c(-c2cnc(N)nc2OC)cc2c1C(c1ccc(Cl)cc1)N(c1ccc(F)c(Cl)c1)C2=O (stereo partly drawn) [Example 224, (R,S)-2-(2-Amino-4-methoxy-pyrimidin-5-yl)-5-(3-chloro-4-fluoro-phenyl)-6-(4-chloro-phenyl)-1-((R)-2-methoxy-1-methyl-ethyl)-5,6-dihydro-1H-pyrrolo[3,4-b]pyrrol-4-one]
0.861	COc1cn(C)c(=O)cc1-c1cc2c(n1C(C)C)C(c1ccc(Cl)cc1)N(c1c(F)c(C)nn1C)C2=O (stereo not shown) [Example 208, 6-(4-Chloro-phenyl)-5-(4-fluoro-2,5-dimethyl-2H-pyrazol-3-yl)-1-isopropyl-2-(5-methoxy-1-methyl-2-oxo-1,2-dihydro-pyridin-4-yl)-5,6-dihydro-1H-pyrrolo[3,4-b]pyrrol-4-one]
0.647	COc1nc(N(C)C)ncc1-c1cc2c(n1C(C)C)C(c1ccc(C#N)cc1)N(c1cc(C)nn1C)C2=O (stereo not shown) [Example 180, 4-[2-(2-Dimethylamino-4-methoxy-pyrimidin-5-yl)-5-(2,5-dimethyl-2H-pyrazol-3-yl)-1-isopropyl-4-oxo-1,4,5,6-tetrahydro-pyrrolo[3,4-b]pyrrol-6-yl]-benzonitrile]

Second part, the molecule before the results:

Compound	IC50 [nM]
COc1ccc(S(C)(=O)=O)cc1-c1cc2c(n1C(C)C)C(c1ccc(Cl)cc1)N(c1cc(Cl)c(=O)n(C)c1)C2=O (stereo not shown) [Example 119, 5-(5-Chloro-1-methyl-6-oxo-1,6-dihydro-pyridin-3-yl)-6-(4-chloro-phenyl)-1-isopropyl-2-(5-methanesulfonyl-2-methoxy-phenyl)-5,6-dihydro-1H-pyrrolo[3,4-b]pyrrol-4-one]	0.168
CNc1ncc(-c2cc3c(n2C(C)C)C(c2ccc(C#N)cc2)N(c2c[nH]c(=O)c(Cl)c2)C3=O)c(OC)n1 (stereo not shown) [Example 137, 4-[5-(5-Chloro-6-oxo-1,6-dihydro-pyridin-3-yl)-1-isopropyl-2-(4-methoxy-2-methylamino-pyrimidin-5-yl)-4-oxo-1,4,5,6-tetrahydro-pyrrolo[3,4-b]pyrrol-6-yl]-benzonitrile]	0.321
COc1nc(N)ncc1-c1cc2c(n1C(C)C)C(c1ccc(C#N)cc1)N(c1c[nH]c(=O)c(Cl)c1)C2=O (stereo not shown) [Example 134, 4-[2-(2-Amino-4-methoxy-pyrimidin-5-yl)-5-(5-chloro-6-oxo-1,6-dihydro-pyridin-3-yl)-1-isopropyl-4-oxo-1,4,5,6-tetrahydro-pyrrolo[3,4-b]pyrrol-6-yl]-benzonitrile]	1.25
CNC(=O)c1ccc(OC)c(-c2cc3c(n2C(C)C)[C@@H](c2ccc(Cl)cc2C)N(c2cc(Cl)ccc2C)C3=O)c1 [Example 33, 3-[(R)-5-(5-Chloro-2-methyl-phenyl)-6-(4-chloro-2-methyl-phenyl)-1-isopropyl-4-oxo-1,4,5,6-tetrahydro-pyrrolo[3,4-b]pyrrol-2-yl]-4-methoxy-N-methyl-benzamide]	44.6
COc1ncc(-c2cc3c(n2C(C)C)C(c2ccc(C#N)cc2)N(c2cccc(Cl)c2F)C3=O)c(OC)n1 (stereo not shown) [Example 42, 4-[5-(3-Chloro-2-fluoro-phenyl)-2-(2,4-dimethoxy-pyrimidin-5-yl)-1-isopropyl-4-oxo-1,4,5,6-tetrahydro-pyrrolo[3,4-b]pyrrol-6-yl]-benzonitrile]	0.246
COc1ccc(-c2cc3c(n2C(C)C)C(c2ccc(Cl)cc2)N(c2cc(Cl)ccc2C)C3=O)c(OC)n1 (stereo not shown) [Example 22, 5-(5-Chloro-2-methyl-phenyl)-6-(4-chloro-phenyl)-2-(2,6-dimethoxy-pyridin-3-yl)-1-isopropyl-5,6-dihydro-1H-pyrrolo[3,4-b]pyrrol-4-one]	0.323
COc1nc(N(C)C)ncc1-c1cc2c(n1C(C)C)C(c1ccc(C#N)cc1)N(c1c[nH]c(=O)c(Cl)c1)C2=O (stereo not shown) [Example 136, 4-[5-(5-Chloro-6-oxo-1,6-dihydro-pyridin-3-yl)-2-(2-dimethylamino-4-methoxy-pyrimidin-5-yl)-1-isopropyl-4-oxo-1,4,5,6-tetrahydro-pyrrolo[3,4-b]pyrrol-6-yl]-benzonitrile]	0.131
COc1cnc(CC(=O)O)cc1-c1cc2c(n1C(C)C)C(c1ccc(C#N)cc1)N(c1cccc(Cl)c1F)C2=O (stereo not shown) [Example 84, {4-[5-(3-Chloro-2-fluoro-phenyl)-6-(4-cyano-phenyl)-1-isopropyl-4-oxo-1,4,5,6-tetrahydro-pyrrolo[3,4-b]pyrrol-2-yl]-5-methoxy-pyridin-2-yl}-acetic acid]	0.482
COc1nc(N)ncc1-c1cc2c(n1C(C)C)[C@H](c1ccc(C#N)cc1)N(c1cccc(Cl)c1F)C2=O [Example 154, 4-[(S)-2-(2-Amino-4-methoxy-pyrimidin-5-yl)-5-(3-chloro-2-fluoro-phenyl)-1-isopropyl-4-oxo-1,4,5,6-tetrahydro-pyrrolo[3,4-b]pyrrol-6-yl]-benzonitrile]	0.328
COc1ccc(C#N)cc1-c1cc2c(n1C(C)C)C(c1ccc(Cl)cc1)N([C@H]1CC[C@H](O)CC1)C2=O (stereo partly drawn) [Example 67, 3-[6-(4-Chloro-phenyl)-5-(trans-4-hydroxy-cyclohexyl)-1-isopropyl-4-oxo-1,4,5,6-tetrahydro-pyrrolo[3,4-b]pyrrol-2-yl]-4-methoxy-benzonitrile]	2.49
COc1nc(N(C)C)ncc1-c1cc2c(n1C(C)C)C(c1ccc(Cl)cc1)N(C1CCOCC1)C2=O (stereo not shown) [Example 79, 6-(4-Chloro-phenyl)-2-(2-dimethylamino-4-methoxy-pyrimidin-5-yl)-1-isopropyl-5-(tetrahydro-pyran-4-yl)-5,6-dihydro-1H-pyrrolo[3,4-b]pyrrol-4-one]	0.423
CNC(=O)c1ccc(OC)c(-c2cc3c(n2C(C)C)C(c2ccc(Cl)cc2)N(c2ccc(F)c(Cl)c2)C3=O)c1 (stereo not shown) [Example 53, 3-[5-(3-Chloro-4-fluoro-phenyl)-6-(4-chloro-phenyl)-1-isopropyl-4-oxo-1,4,5,6-tetrahydro-pyrrolo[3,4-b]pyrrol-2-yl]-4-methoxy-N-methyl-benzamide]	0.323
COc1nc(N(C)C)ncc1-c1c(C#N)c2c(n1C(C)C)C(c1ccc(Cl)cc1)N(c1cc(Cl)c(=O)n(C)c1)C2=O (stereo not shown) [Example 164, 5-(5-Chloro-1-methyl-6-oxo-1,6-dihydro-pyridin-3-yl)-6-(4-chloro-phenyl)-2-(2-dimethylamino-4-methoxy-pyrimidin-5-yl)-1-isopropyl-4-oxo-1,4,5,6-tetrahydro-pyrrolo[3,4-b]pyrrole-3-carbonitrile]	0.121
COc1nc(N)ncc1-c1cc2c(n1C(C)C)[C@H](c1ccc(C#N)cc1)N(c1ccc(F)c(Cl)c1)C2=O [Example 171, 4-[(S)-2-(2-Amino-4-methoxy-pyrimidin-5-yl)-5-(3-chloro-4-fluoro-phenyl)-1-isopropyl-4-oxo-1,4,5,6-tetrahydro-pyrrolo[3,4-b]pyrrol-6-yl]-benzonitrile]	0.699
COc1nc(N)ncc1-c1cc2c(n1C(C)C)C(c1ccc(Cl)cc1)N([C@H]1CC[C@H](OC)CC1)C2=O (stereo partly drawn) [Example 141, 2-(2-Amino-4-methoxy-pyrimidin-5-yl)-6-(4-chloro-phenyl)-1-isopropyl-5-(trans-4-methoxy-cyclohexyl)-5,6-dihydro-1H-pyrrolo[3,4-b]pyrrol-4-one]	6.85
